Patent US20100203614A1, “FATTY ALDEHYDE REDUCTASE” (Utah State University, priority 2009, published 2010)
“And” between values parts separate entries of the source, which are not always exact repeats. Equal entries are not always repeated. “Also recorded” adds a separate entry of the source. Structures can show the parent of a compound that is named as a salt. Where two headings read alike, the source gives them in different places.

Columns and labels:
[1] = tested on: MBP-FALDR fusion protein; assay: Inhibition of decanal reduction by MBP-FALDR in the presence of NADPH; assay type: biochemical, Marinobacter aquaeolei VT8; conditions: for Percent Activity: 100 mM MES pH 6.5, 200 μM NADPH, 250 μM decanal, 125 μg MBP-FALDR, activity remaining vs no inhibitor; for effect on decanal reduction in words: tested at 1.0 mM
Experimental: (§1) For Fatty Aldehyde Continuous Spectrophotometric Assay Development, all assays were performed in a sealed quartz cuvette with a 1 cm path length. The cuvette and solutions were first degassed with argon on a manifold to remove oxygen from the headspace and solutions. Substrates were initially disbursed into a buffer solution containing BSA at a concentration of 0.5 mg/mL by sonication for three ten second intervals using a microtip sonicator (Branson, Danbury, Conn.). The initial assay for pH optimization included a buffer of 100 mM MOPS, 100 mM MES, and 100 mM TAPS. For reduction assays, 75 μL of a 2 mg/mL NADPH stock was added to bring the initial concentration of NADPH in the cuvette to approximately 200 μM, and an approximate absorbance at 340 nm of 1.2 based on the reported extinction coefficient of 6220 M^−1 cm^−1 for NADPH. In all assays, the reaction was run for at least two minutes with the NADPH and substrate present, prior to the addition of any enzyme, to obtain a background oxidation rate of the NADPH.
Finally, the ability of decanol to inhibit reduction of decanal was also tested.
Referring again to Table 2, the inhibition assays were run in 100 mM MES buffer pH 6.5 with 200 μM NADPH, 250 μM decanal and 125 μg of MBP-FALDR fusion protein. All compounds were dissolved in buffer except dipyridyl, which was dissolved in dimethyl sulfoxide (DMSO).

[2] = tested on: MBP-FALDR enzyme (maltose binding protein-fatty aldehyde reductase fusion protein); assay: Continuous spectrophotometric assay of fatty aldehyde reductase activity (NADPH oxidation at 340 nm), substrate comparison and kinetics; assay type: biochemical, Marinobacter aquaeolei VT8; conditions: for substrate activity in words: compared with decanal; for substrate activity in words / Relative Activity (Percent of Decanal): substrate 100 μg/mL; for Relative Activity (Percent of Decanal): 160 μg enzyme, decanal = 85 nmols/min/mg = 100; for Km: substrate of MBP-FALDR, NADPH, FIG. 2 substrate is cis-11-hexadecenal
Experimental: as §1, with “the NADPH. […] A linear fit of the data was then used to establish the rate, and the initial background rate was subtracted, to determine the rate associated with substrate reduction by the MBP-FALDR enzyme.” for “the NADPH.”
Having established that the MBP-FALDR would utilize NADPH as a substrate, it was possible to employ a continuous spectrophotometric assay to monitor substrate reduction rates based on the loss of absorbance at 340 nm when NADPH is oxidized to NADP^+. Using this assay, it was possible to establish the pH dependence of the reduction reaction. The rate of reaction was highest at pH 6.3, with a steep increase in activity going from 8.0 to 6.3. The rate at 6.3 was only slightly greater than at 6.5 ([…]). Several factors had to be considered in establishing the optimal pH of the assay. The first was the background oxidation of the NADPH without any MBP-FALDR enzyme present. […] The assays were run under an argon atmosphere to minimize oxidation of the NADPH by O2. A further consideration was the rapid degradation that occurs at the lowest pH values. […] So, for standard assays used here, a pH of 6.5 was selected, where the activity was minimally affected by slight variations in pH. The following discussion is useful in understanding some features and benefits of the various embodiments of the invention:
Utilizing the continuous assay to monitor MBP-FALDR activity, the dependence of rate on substrate concentration was determined for all of the commercially available substrates described above. Each assay was repeated multiple times to confirm the results from each single determination. The results obtained for cis-11-hexadecenal are shown in FIG. 2 and are representative of the results obtained for repeated determinations and for the other substrates. […] In addition, several factors could limit the observed activity. All of the substrates tested have limited solubility in aqueous solutions, and must first be suspended in solution via sonication. Even under these conditions, it is likely that the substrates exist inside micelles. The sonication process utilized here could result in the partial degradation of the substrate over time. Additionally, the suspension of the substrate in solution is only temporary, and the substrate slowly separates from aqueous solution. Due to these limitations, the measured activity is likely to be an underestimate of the actual activity. In the cell, the enzyme and substrate are likely associated with the hydrophobic membranes. […] It was also observed that the MBP-FALDR enzyme was unstable over time, even when stored at 4° C., losing as much as 50% of the activity over a period of a week. Though the purification is quite rapid, it is uncertain how much activity is lost during preparation. […]

[3] = target: Marinobacter aquaeolei VT8 fatty aldehyde reductase (SEQ ID NO: 2) as maltose binding protein-fatty aldehyde reductase fusion protein (MBP-FALDR), SEQ ID NO: 3 (Marinobacter nauticus, UniProt A1U2T0); assay: Inhibition of decanal reduction by MBP-FALDR; assay type: biochemical; conditions: for effect on activity (in words): 1.0 mM
Experimental: as §1, with “the NADPH. […] A linear fit of the data was then used to establish the rate, and the initial background rate was subtracted, to determine the rate associated with substrate reduction by the MBP-FALDR enzyme.” for “the NADPH.”
To probe the possible mechanism of the fatty aldehyde reducatase enzyme comprising the amino acid sequence of SEQ ID NO: 2, applicants again used the MBP-FALDR enzyme and some potential chemical inhibitors were tested for effects on the reduction of decanal by the MBP-FALDR enzyme in the presence of NADPH. In all cases, the compound was tested initially at concentrations of 1.0 mM, and if a significant inhibition was found, lower concentrations were also tested (Table 2). […] At higher concentrations, this was difficult to assess fully, as the dithionite interferes with the absorbance at 340 nm where activity is measured. […] This could be an indication of an active site residue or cofactor that is susceptible to reduction. […] This would indicate that if a transition metal is involved in the catalysis, it is not readily accessible to such chelators. Finally, the ability of decanol to inhibit reduction of decanal was also tested.
Certain embodiments of the invention may be characterized, in part, by the inhibition of the reduction of decanal by a fatty aldehyde reductase enzyme comprised by an amino acid sequence at least 90% identical to the amino acid sequence of SEQ ID NO: 2.
Referring again to Table 2, the inhibition assays were run in 100 mM MES buffer pH 6.5 with 200 μM NADPH, 250 μM decanal and 125 μg of MBP-FALDR fusion protein. All compounds were dissolved in buffer except dipyridyl, which was dissolved in dimethyl sulfoxide (DMSO). […] Activity is reported as the activity remaining in the presence of each compound as a percentage of the activity without any inhibitor present. *Not determined. Each compound was tested multiple times to confirm reproducibility. The remaining activity presented here is the result from a single set of data.

[4] = tested on: MBP-FALDR enzyme; assay: Initial assessment of activity: overnight reaction with NADPH/NADH or NADP+, GC/GC-MS analysis; assay type: biochemical, Marinobacter aquaeolei VT8; conditions: with NADP+
Experimental: For initial assessment of the activity of the purified MBP-FALDR enzyme, 50 μg of purified MBP-FALDR protein was added to a reaction mixture containing 100 mM of Tris buffer at pH 7.9, 100 mM NaCl, 2.4 mM of either NADPH or NADH as a reductant, and decanal, oleic acid, and hexadecanol as possible substrates. The assays were run under an argon atmosphere in septa sealed vials overnight at room temperature with constant gentle mixing. The products of the reactions were then extracted from the buffer by adding an equal volume of hexane and organic layer components were analyzed by gas chromatography equipped with a flame ionization detector (Forte HT5 column (SGE Analytical Science, Austin, Tex.), 30 meter by 0.32 mm inner diameter with 0.5 μm film thickness, with argon as a carrier and a temperature ramp from 60° C. to 360° C. increasing at 10° C. per minute). Samples containing new peaks not present in a control sample were also run through a gas chromatograph equipped with a mass spectrometer (Shimadzu GC-2010 and GCMS-QP2010S) to assign the identity of the product.
Preliminary experiments were run with the MBP-FALDR enzyme to probe possible substrates by mixing either NADH or NADPH with an aldehyde (decanal), alcohol (hexadecanol) or fatty acid (oleic acid) and then looking for changes in concentration of one or more of the potential substrates by GC analysis. The assays were allowed to run overnight in a sealed vial under an atmosphere of argon to maintain the reduced forms of the nicotinamide coenzymes. […] This initial result pointed to the likelihood that the MBP-FALDR enzyme is an NADPH-dependent fatty aldehyde reductase, and further experiments were run to characterize this activity. […] The activity of medium chain alcohol dehydrogenases from a broad range of species show rates of oxidation of alcohols that are 10% of the rates of the reduction of the corresponding aldehyde, so it is possible that this rate is too low to detect.

[5] = reduction of decanal with NADPH

## O[C@H](CS)[C@H](O)CS (racemic) [Dithiothreitol]
[1]; inhibitor 1.0 mM
  Percent Activity: 76%

## O=C1O[C@H]([C@@H](O)CO)C(O)=C1O [Ascorbic Acid]
[1]; inhibitor 1.0 mM
  Percent Activity: 76%

## O=Cc1ccccc1 [Benzaldehyde]
[2]
  substrate activity in words: no apparent activity
  Relative Activity (Percent of Decanal): <1% of Decanal

## CCCC=O [Butanal]
[2]
  substrate activity in words: no apparent activity
  Relative Activity (Percent of Decanal): <1% of Decanal

## c1ccc(-c2ccccn2)nc1 [Dipyridyl]
[1]; inhibitor 0.25 mM
  Percent Activity: 59%
[1]; inhibitor 1.0 mM
  Percent Activity: 46%
[1]
  effect on decanal reduction in words: moderate inhibition
[3]; [5]
  effect on activity (in words): only a moderate inhibition of activity

## O=S(O)S(=O)O [Dithionite]
[1]; inhibitor 0.25 mM
  Percent Activity: 8%
[1]; inhibitor 1.0 mM
  Percent Activity: 25%
[1]
  effect on decanal reduction in words: significant decrease in activity
[3]; 0.25 mM inhibitor, 100 mM MES pH 6.5, 200 μM NADPH, 250 μM decanal, 125 μg MBP-FALDR, % of activity without inhibitor
  Percent Activity (activity remaining in presence of inhibitor): 8%
[3]; 250 μM, reduction of decanal with NADPH, compared with higher concentration
  inhibition (in words): the inhibition is more pronounced
[3]; 1.0 mM inhibitor, 100 mM MES pH 6.5, 200 μM NADPH, 250 μM decanal, 125 μg MBP-FALDR, % of activity without inhibitor
  Percent Activity (activity remaining in presence of inhibitor): 25%
[3]; [5]
  effect on activity (in words): significant decrease in activity

## CCCCCCCCCCCC=O [Dodecanal]
[2]
  substrate activity in words: activity was lower
  Relative Activity (Percent of Decanal): 55% of Decanal
[2]; Michaelis-Menten fit
  Km: ~200 µM

## CCCCCCCCCCCCO [Dodecanol]
[1]; inhibitor 0.25 mM
  Percent Activity: 55%
[1]; inhibitor 1.0 mM
  Percent Activity: 54%

## O=C(O)CN(CCN(CC(=O)O)CC(=O)O)CC(=O)O [EDTA (Disodium Salt)]
[3]; [5]
  effect on activity (in words): little effect on the activity
[3]; pH 6.5, read-out: Percent Activity (activity remaining in presence of inhibitor)
  inhibition at 1000 µM: 81%

## CCCCCC=O [Hexanal]
[2]
  substrate activity in words: no apparent activity
  Relative Activity (Percent of Decanal): <1% of Decanal

## CCCCCCCC=O [Octanal]
[2]
  substrate activity in words: approximately half the activity obtained for decanal
  Relative Activity (Percent of Decanal): 52% of Decanal
[2]; Michaelis-Menten fit
  Km: ~750 µM

## CCCC/C=C\CCCCCCCCCC=O [cis-11-hexadecenal]
[2]; Michaelis-Menten fit, substrate cis-11-hexadecenal (FIG. 2)
  Vmax (maximum velocity): 63 nmol/min/mg
[2]
  substrate activity in words: slightly lower than that obtained for decanal; also recorded: activity comparable to decanal
  Relative Activity (Percent of Decanal): 87% of Decanal
[2]; Michaelis-Menten fit
  Km: ~177 µM and 177 µM

## CCCCCCCCCCCCCCCCO [hexadecanol]
[4]
  reverse reaction: aldehyde production by GC: no detectable levels

## OCCS [β-Mercaptoethanol]
[3]; 1.0 mM inhibitor, 100 mM MES pH 6.5, 200 μM NADPH, 250 μM decanal, 125 μg MBP-FALDR, % of activity without inhibitor, read-out: Percent Activity (activity remaining in presence of inhibitor)
  inhibition at 1000 µM: 75%
